Experimental data: patent US7332476B2, “Pyridyl substituted ketolide antibiotics” (Novartis AG, priority 2003, dated 2008)
In brackets after ≈: the same amount, converted by molar mass.

Tests used:
Test in all cases: MIC, broth microdilution (NCCLS)
[1] = system: Streptococcus pneumoniae Stpn_49619; format: cell-based; parameters: MIC, strain ID M: unit not given beside the values; conditions: for MIC: Table 10, Strain ID M (Table 8): Streptococcus pneumoniae Stpn_49619; for MIC, strain ID M: broth microdilution
Method in brief: (§1)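 Broth microdilution per NCCLS in cation-adjusted Mueller-Hinton broth, with 2-5% lysed horse blood added for S. pneumoniae. Inoculum 3×10^5–7×10^5 CFU/ml, 2-fold drug dilutions, 18-24 h at 35° C; S. pneumoniae under 5-10% CO2, others ambient air. MIC = lowest concentration preventing visible growth.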

[2] = system: Haemophilus influenzae Hain_960730503-3; format: cell-based; conditions: in µg/mL (unit assumed); for MIC: Table 10, Strain ID I (Table 8): Haemophilus influenzae Hain_960730503-3; for MIC, strain ID I: broth microdilution
Experimental: (§2) Strains. The bacterial isolates listed in Table 8 were cultivated from −70° C. frozen stocks by two consecutive overnight passages (P1, P2) at 35° C. on 5% blood agar (Remel, Lenexa, Kans.). Chocolate agar (Remel) is used for Haemophilus influenzae. H. influenzae and Streptococcus pneumoniae are incubated in 5-10% CO2
(§3) Drug Stock Preparation. To determine the amount of solvent to be used to give the desired final concentration, the formula “weight obtained in mg/final concentration in mg/ml” will be used. It will give the amount of solvent in ml needed to be added to give the desired concentration. For example, if 2.5 mg/ml is the desired concentration and the weight of compound is 13.7 mg, then the amount of solvent to be added is […]. Methanol is used as the solvent to dissolve the test compounds. Further dilution of stock is done in sterile, deionized water. Drug stocks are kept frozen at −70° C., protected from light.
(§4) Susceptibility Testing. MICs are determined by the broth microdilution method in accordance with the NCCLS guidelines. In brief, organism suspensions are adjusted to a 0.5 McFarland standard to yield a final inoculum between 3×10^5 and 7×10^5 CFU/ml. Drug dilutions and inocula are made in sterile, cation adjusted Mueller-Hinton Broth (CAMHB) (Remel) for all but S. pneumoniae [CAMHB with 2-5% lysed horse blood (Remel)] and H. influenzae [Haemophilus Test Medium (Remel)]. An inoculum volume of 100 μl is added to wells containing 100 μl of broth with 2-fold serial dilutions of drug. All inoculated microdilution trays are incubated in ambient air at 35° C. for 18-24 hours, except for S. pneumoniae, and H. influenzae (both at 5-10% CO2).
(§5) Following appropriate incubation, the MIC is determined and the MIC is defined as the lowest concentration of the drug that prevented visible growth. […] Antibacterial activity of representative compounds of the invention were compared against telitromycin.

[3] = system: Staphylococcus aureus Stau_33591; format: cell-based; conditions: unit assumed; for MIC: Table 10, Strain ID B (Table 8): Staphylococcus aureus Stau_33591; for MIC, strain ID B: broth microdilution
Experimental: as §2, §3, §4, §5

[4] = system: Haemophilus influenzae Hain_2762; format: cell-based; conditions: in µg/mL (unit assumed); for MIC: Table 10, Strain ID L (Table 8): Haemophilus influenzae Hain_2762; for MIC, strain ID L: broth microdilution
Experimental: as §2, §3, §4, §5

[5] = system: Haemophilus influenzae Hain_960820544-3; format: cell-based; conditions: in µg/mL (unit assumed); for MIC: Table 10, Strain ID J (Table 8): Haemophilus influenzae Hain_960820544-3; for MIC, strain ID J: broth microdilution
Experimental: as §2, §3, §4, §5

[6] = system: Haemophilus influenzae Hain_953460299-3; format: cell-based; conditions: in µg/mL (unit assumed); for MIC: Table 10, Strain ID K (Table 8): Haemophilus influenzae Hain_953460299-3; for MIC, strain ID K: broth microdilution
Experimental: as §2, §3, §4, §5

[7] = system: Enterococcus faecalis Enfa_bc 11148-2; format: cell-based; conditions: in µg/mL (unit assumed); for MIC: Table 10, Strain ID F (Table 8): Enterococcus faecalis Enfa_bc 11148-2; for MIC, strain ID F: broth microdilution
Experimental: as §2, §3, §4, §5

[8] = system: Streptococcus pyogenes Stpy_8668; format: cell-based; parameters: MIC, strain ID G: unit not given beside the values; conditions: for MIC: Table 10, Strain ID G (Table 8): Streptococcus pyogenes Stpy_8668; for MIC, strain ID G: broth microdilution
Method in brief: as §1

[9] = system: Streptococcus pneumoniae Stpn_280-962; format: cell-based; parameters: MIC, strain ID O: unit not given beside the values; conditions: for MIC: Table 10, Strain ID O (Table 8): Streptococcus pneumoniae Stpn_280-962; for MIC, strain ID O: broth microdilution
Method in brief: as §1

[10] = system: Staphylococcus aureus Stau_29213; format: cell-based; conditions: in µg/mL (unit assumed); for MIC: Table 10, Strain ID A (Table 8): Staphylococcus aureus Stau_29213; for MIC, strain ID A: broth microdilution
Method in brief: as §1

[11] = system: Enterococcus faecalis Enfa_29212; format: cell-based; conditions: for MIC: Table 10, Strain ID E (Table 8): Enterococcus faecalis Enfa_29212; for MIC, strain ID E: broth microdilution
Method in brief: as §1

[12] = system: Haemophilus influenzae Hain_49247; format: cell-based; conditions: unit assumed; for MIC: Table 10, Strain ID H (Table 8): Haemophilus influenzae Hain_49247; for MIC, strain ID H: broth microdilution
[13] = system: Staphylococcus epidermidis Step_14990; format: cell-based; conditions: in µg/mL (unit assumed); for MIC: Table 10, Strain ID C (Table 8): Staphylococcus epidermidis Step_14990; for MIC, strain ID C: broth microdilution
Method in brief: as §1

[14] = system: Streptococcus pneumoniae Stpn_Erm S 4297; format: cell-based; conditions: for MIC: Table 10, Strain ID R (Table 8): Streptococcus pneumoniae Stpn_Erm S 4297, unit assumed; for MIC, strain ID Q: broth microdilution
Method in brief: as §1

[15] = system: Staphylococcus epidermidis Step_f50654; format: cell-based; conditions: in µg/mL (unit assumed); for MIC: Table 10, Strain ID D (Table 8): Staphylococcus epidermidis Step_f50654; for MIC, strain ID D: broth microdilution
Method in brief: as §1

[16] = system: Streptococcus pneumoniae Stpn_Mef S 3427; format: cell-based; conditions: Table 10, Strain ID Q (Table 8): Streptococcus pneumoniae Stpn_Mef S 3427; in µg/mL (unit assumed)
Method in brief: as §1

[17] = system: Streptococcus pneumoniae Stpn_297-749; format: cell-based; parameters: MIC, strain ID N: unit not given here; conditions: for MIC: Table 10, Strain ID N (Table 8): Streptococcus pneumoniae Stpn_297-749; for MIC, strain ID N: broth microdilution
Method in brief: as §1

[18] = system: Streptococcus pneumoniae Stpn_Mef 5654; format: cell-based; conditions: Table 10, Strain ID P (Table 8): Streptococcus pneumoniae Stpn_Mef 5654; in µg/mL (unit assumed)
Method in brief: as §1

[19] = system: S. pneumoniae Stpn_Erm 6849; format: cell-based, Streptococcus pneumoniae; conditions: strain ID P; broth microdilution; in µg/mL (unit assumed)
Method in brief: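 Lowest drug concentration giving no visible growth after 18-24 hours at 35° C. under 5-10% CO2 was taken as MIC. Twofold serial dilutions in CAMHB plus 2-5% lysed horse blood, final inoculum 3×10^5–7×10^5 CFU/ml, per NCCLS microdilution.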

SMILES | MIC [1] | MIC [2] | MIC [3] | MIC [4] | MIC [5] | MIC [6] | MIC [7] | MIC [8] | MIC [9] | MIC [10] | MIC ([11]; in µg/mL (unit assumed)) | MIC [12] | MIC [13] | MIC [14] | MIC [15] | MIC [16] | MIC [17] | MIC [18] | MIC, strain ID M [1] | MIC, strain ID I [2] | further results
CC[C@H]1OC(=O)[C@H](C)C(=O)[C@H](C)[C@@H](OC2O[C@H](C)C[C@H](N(C)C)[C@H]2O)[C@@](C)(OC)C[C@@H](C)C(=O)[C@H](C)[C@H]2N(CCCCn3cnc(-c4ccc(F)nc4)c3)C(=O)O[C@]12CC (stereo partly shown) [XV] | =0.05 | 6.25 | > 50 µg/mL | 0.78 | 6.25 | 3.13 | 0.78 | =0.05 | =0.05 | 0.4 | 0.1 | 3.13 µg/mL (≈ 3.71 µM) | 0.2 | 0.1 µg/mL (≈ 0.118 µM) | 0.2 | 0.1 | =0.05 | 0.4 | – | – | –
C=C[C@]12OC(=O)N(CCCCn3cnc(-c4ccc(OCC)nc4)c3)[C@@H]1[C@@H](C)C(=O)[C@H](C)C[C@](C)(OC)[C@H](OC1O[C@H](C)C[C@H](N(C)C)[C@H]1O)[C@@H](C)C(=O)[C@@H](C)C(=O)O[C@@H]2CC (stereo partly shown) [XXII] | =0.05 | 6.25 | > 50 µg/mL | 1.56 | 3.13 | 12.5 | 25 | – | =0.05 | 0.4 | 0.2 | 6.25 µg/mL (≈ 7.2 µM) | 0.4 | 1.56 µg/mL (≈ 1.8 µM) | 0.4 | 0.78 | =0.05 | 0.78 | – | – | MIC ([8]; unit assumed): 0.1 µg/mL (≈ 0.115 µM)
C=C[C@]12OC(=O)N(CCCCn3cc(-c4ccc(Cl)nc4)nc3C)[C@@H]1[C@@H](C)C(=O)[C@H](C)C[C@](C)(OC)[C@H](OC1O[C@H](C)C[C@H](N(C)C)[C@H]1O)[C@@H](C)C(=O)[C@@H](C)C(=O)O[C@@H]2CC (stereo partly shown) [XXIX] | – | – | – | – | – | – | – | – | – | – | – | – | – | – | – | – | – | – | =0.05 | 6.25 | MIC, strain ID B [3]: > 50 µg/mL; MIC, strain ID L [4]: 1.56; MIC, strain ID J [5]: 6.25; MIC, strain ID K [6]: 12.5; MIC, strain ID F [7]: 3.13; MIC, strain ID G [8]: =0.05; MIC, strain ID O [9]: =0.05; MIC, strain ID P [19]: 0.78; MIC, strain ID A [10]: 0.2; MIC, strain ID E ([11]; in µg/mL (unit assumed)): 0.1; MIC, strain ID H [12]: 6.25 µg/mL (≈ 7.16 µM); MIC, strain ID C [13]: 0.1; MIC, strain ID Q [14]: =0.05; MIC, strain ID D [15]: 0.2; MIC, strain ID N [17]: =0.05
CC[C@H]1OC(=O)[C@H](C)C(=O)[C@H](C)[C@@H](OC2O[C@H](C)C[C@H](N(C)C)[C@H]2O)[C@@](C)(OC)C[C@@H](C)C(=O)[C@H](C)[C@H]2N(CCCCn3cnc(-c4ccc(Cl)nc4)c3)C(=O)O[C@]12CC (stereo partly shown) [XXI] | =0.05 | 6.25 | > 50 µg/mL | 0.78 | 6.25 | 6.25 | 1.56 | =0.05 | =0.05 | 0.1 | – | 3.13 µg/mL (≈ 3.64 µM) | 0.1 | 0.1 µg/mL (≈ 0.116 µM) | 0.1 | 0.2 | =0.05 | 0.78 | – | – | MIC [11]: =0.05
CC[C@H]1OC(=O)[C@H](C)C(=O)[C@H](C)[C@@H](OC2O[C@H](C)C[C@H](N(C)C)[C@H]2O)[C@@](C)(OC)C[C@@H](C)C(=O)[C@H](C)[C@@H]2[C@@H]1OC(=O)N2CCCCn1cnc(-c2ccc(Cl)nc2)c1 (stereo partly shown) [XXVIII] | – | – | – | – | – | – | – | – | – | – | – | – | – | – | – | – | – | – | =0.05 | 6.25 | MIC, strain ID B [3]: > 50 µg/mL; MIC, strain ID L [4]: 1.56; MIC, strain ID J [5]: 6.25; MIC, strain ID K [6]: 12.5; MIC, strain ID F [7]: 0.4; MIC, strain ID G [8]: =0.05; MIC, strain ID O [9]: =0.05; MIC, strain ID P [19]: 0.78; MIC, strain ID A [10]: 0.2; MIC, strain ID E [11]: =0.05; MIC, strain ID H [12]: 6.25 µg/mL (≈ 7.51 µM); MIC, strain ID C [13]: 0.1; MIC, strain ID Q ([14]; in µg/mL (unit assumed)): 0.1; MIC, strain ID D [15]: 0.2; MIC, strain ID N [17]: =0.05
